{"source": "paper PMC11734723", "about": "(Science Advances, 2025)", "origin": "cited, not measured here", "key": {"[1]": {"test_system": "RANKL-induced osteoclast differentiation", "details": "cited from earlier work"}, "Orai channels": {"test_system": "Orai channels", "details": "cited from earlier work"}, "[2]": {"test_system": "collagen-induced arthritis (CIA) mouse model", "details": "administered beginning at the time of arthritis induction; cited from earlier work"}}}
{"smiles": "CCC(=O)Nc1ccc(Cl)c(Cl)c1", "note": "[3,4-dichloropropionanilide]", "values": [{"measurement": "inhibition of RANKL-induced osteoclastogenesis", "setting": "[1]; 100 nM", "result": "failed to inhibit"}, {"measurement": "formation of bone-degrading osteoclasts", "setting": "[1]; in vitro", "result": "reduced"}, {"measurement": "concentration needed to block RANKL-induced osteoclast differentiation", "setting": "[1]; in vitro, not blocked at concentrations below this", "result": "≥ 10", "unit": "µM"}, {"measurement": "effect on Orai channels", "setting": "Orai channels", "result": "inhibits"}, {"measurement": "effect on arthritis", "setting": "[2]", "result": "reduces arthritis"}]}
